Source: US20040138160A1, “Preventive/therapeutic method for cancer” (priority 2001, published 2004)

Assays:
MDA-MB-231 = conditions: breast, HER2 score 0; dose 20 mg/kg/day orally, divided into two per day, 14 days
Protocol: (§1) An increase in the tumor volume from that before administration to that on the next day of the final administration was compared to that of the control group and an anti-tumor effect was studied. In addition, the tumor volume was calculated from the following equation:
(§2) Formula: tumor volume=longer diameter×shorter diameter×shorter diameter×(1/2)
(§3) A ratio of the value obtained by subtracting a tumor volume on the day of the administration initiation from the tumor volume on the next day of the completion of the administration in the control group, and the value obtained by subtracting the tumor volume on the day of the administration initiation from the tumor volume on the next day of the completion of the administration was determined as a growth rate (T/C (%)).

FGFR = conditions: read-out: IC50 (μmol/L) FGFR; NIH3T3 cells, FGF 20 ng/mL; compound 2 hr
Protocol: (§4) For consideration of the action on a receptor-type tyrosine kinase, A-431 cells or NIH3T3 cells were sown in a 24 multi-well plate (2×10^5 cells/well) and cultured overnight in a carbon dioxide gas incubator (5% CO2, 37° C.). The medium was changed to a serum-free medium and the cells were further incubated for one day. […] The culture medium was removed 5 min later and SDS sample buffer was added to give a cell lysate (200 μL). For consideration of the action on a non-receptor type tyrosine kinase, A431 (Jak1), Jurkat (Src) or Namalwa cells (Blk) were sown in a 6-well multi-well plate (5×10^5 cells/well) and cultured overnight in a carbon dioxide gas incubator (5% CO2, 37° C.).

[1] = test system: tyrosine kinase activity other than HER2; conditions: read-out: IC50 value for tyrosine kinase activity other than HER2; in every case (EGFR, FGFR, PDGFR, Jak1, Src, blk)
Protocol: as §4

PDGFR = conditions: read-out: IC50 (μmol/L) PDGFR; NIH3T3 cells, PDGF 20 ng/mL; compound 2 hr
Protocol: as §4

HER2 = HER2 (Homo sapiens, UniProt P04626); conditions: BT-474 tumor in nude mice; 20 mg/kg/day orally 14 days, then 10 mg/kg; tumor sampled four hours later
HER2, sequence (P04626 23-1255): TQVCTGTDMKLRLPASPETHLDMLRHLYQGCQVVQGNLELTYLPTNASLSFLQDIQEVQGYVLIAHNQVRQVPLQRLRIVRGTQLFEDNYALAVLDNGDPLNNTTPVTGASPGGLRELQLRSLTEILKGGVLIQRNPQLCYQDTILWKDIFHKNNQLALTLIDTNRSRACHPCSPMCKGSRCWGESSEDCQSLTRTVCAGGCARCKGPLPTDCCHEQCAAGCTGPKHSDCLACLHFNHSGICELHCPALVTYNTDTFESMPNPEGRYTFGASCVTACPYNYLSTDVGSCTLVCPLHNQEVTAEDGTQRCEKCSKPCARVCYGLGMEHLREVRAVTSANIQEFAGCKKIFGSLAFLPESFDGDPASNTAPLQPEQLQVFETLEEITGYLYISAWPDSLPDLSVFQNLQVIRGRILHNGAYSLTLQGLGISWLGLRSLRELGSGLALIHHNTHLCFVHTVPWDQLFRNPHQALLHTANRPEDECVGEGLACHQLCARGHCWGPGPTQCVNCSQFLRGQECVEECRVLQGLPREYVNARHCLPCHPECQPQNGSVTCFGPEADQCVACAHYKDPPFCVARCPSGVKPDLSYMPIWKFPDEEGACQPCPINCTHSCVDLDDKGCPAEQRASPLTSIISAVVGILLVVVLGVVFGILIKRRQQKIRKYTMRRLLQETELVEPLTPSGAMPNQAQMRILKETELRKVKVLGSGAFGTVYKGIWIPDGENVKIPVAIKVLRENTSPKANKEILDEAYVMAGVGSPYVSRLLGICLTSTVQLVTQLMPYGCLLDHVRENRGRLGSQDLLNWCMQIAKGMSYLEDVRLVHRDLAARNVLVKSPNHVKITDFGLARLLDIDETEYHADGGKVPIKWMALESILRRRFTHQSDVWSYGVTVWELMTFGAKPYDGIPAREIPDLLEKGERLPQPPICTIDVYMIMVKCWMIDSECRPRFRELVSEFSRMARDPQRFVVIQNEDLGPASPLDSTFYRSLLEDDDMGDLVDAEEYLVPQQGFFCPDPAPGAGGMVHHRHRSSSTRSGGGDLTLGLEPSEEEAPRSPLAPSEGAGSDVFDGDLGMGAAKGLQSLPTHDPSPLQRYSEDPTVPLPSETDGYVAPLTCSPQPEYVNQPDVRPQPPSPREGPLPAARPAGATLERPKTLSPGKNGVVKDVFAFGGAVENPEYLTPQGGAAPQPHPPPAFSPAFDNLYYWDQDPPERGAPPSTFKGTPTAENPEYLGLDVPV
Protocol: Four hours later, the tumor was sampled and a tumor homogenate was prepared.

Akt = test: cells; conditions: Homo sapiens, BT-474, 2 h, read-out: inhibition of activation of Akt (IC50 value)
blk = blk (Homo sapiens, UniProt P51451); test: cell-based
blk, sequence (P51451 whole entry): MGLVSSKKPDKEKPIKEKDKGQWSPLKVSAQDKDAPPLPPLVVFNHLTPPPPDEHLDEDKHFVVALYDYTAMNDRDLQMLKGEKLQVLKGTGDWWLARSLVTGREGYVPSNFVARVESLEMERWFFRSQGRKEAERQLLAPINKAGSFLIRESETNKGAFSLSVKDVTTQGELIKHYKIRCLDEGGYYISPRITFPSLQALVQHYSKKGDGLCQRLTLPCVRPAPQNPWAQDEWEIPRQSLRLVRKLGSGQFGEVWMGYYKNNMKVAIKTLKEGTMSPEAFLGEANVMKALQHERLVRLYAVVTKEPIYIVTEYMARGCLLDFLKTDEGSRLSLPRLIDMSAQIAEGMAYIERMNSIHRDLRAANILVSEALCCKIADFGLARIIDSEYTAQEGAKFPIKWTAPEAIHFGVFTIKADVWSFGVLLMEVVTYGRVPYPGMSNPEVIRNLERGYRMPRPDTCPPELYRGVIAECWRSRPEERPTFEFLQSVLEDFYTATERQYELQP
Protocol: as §4

Jak1 = Jak1 (Homo sapiens, UniProt P23458); test: cell-based
Jak1, sequence (P23458 whole entry): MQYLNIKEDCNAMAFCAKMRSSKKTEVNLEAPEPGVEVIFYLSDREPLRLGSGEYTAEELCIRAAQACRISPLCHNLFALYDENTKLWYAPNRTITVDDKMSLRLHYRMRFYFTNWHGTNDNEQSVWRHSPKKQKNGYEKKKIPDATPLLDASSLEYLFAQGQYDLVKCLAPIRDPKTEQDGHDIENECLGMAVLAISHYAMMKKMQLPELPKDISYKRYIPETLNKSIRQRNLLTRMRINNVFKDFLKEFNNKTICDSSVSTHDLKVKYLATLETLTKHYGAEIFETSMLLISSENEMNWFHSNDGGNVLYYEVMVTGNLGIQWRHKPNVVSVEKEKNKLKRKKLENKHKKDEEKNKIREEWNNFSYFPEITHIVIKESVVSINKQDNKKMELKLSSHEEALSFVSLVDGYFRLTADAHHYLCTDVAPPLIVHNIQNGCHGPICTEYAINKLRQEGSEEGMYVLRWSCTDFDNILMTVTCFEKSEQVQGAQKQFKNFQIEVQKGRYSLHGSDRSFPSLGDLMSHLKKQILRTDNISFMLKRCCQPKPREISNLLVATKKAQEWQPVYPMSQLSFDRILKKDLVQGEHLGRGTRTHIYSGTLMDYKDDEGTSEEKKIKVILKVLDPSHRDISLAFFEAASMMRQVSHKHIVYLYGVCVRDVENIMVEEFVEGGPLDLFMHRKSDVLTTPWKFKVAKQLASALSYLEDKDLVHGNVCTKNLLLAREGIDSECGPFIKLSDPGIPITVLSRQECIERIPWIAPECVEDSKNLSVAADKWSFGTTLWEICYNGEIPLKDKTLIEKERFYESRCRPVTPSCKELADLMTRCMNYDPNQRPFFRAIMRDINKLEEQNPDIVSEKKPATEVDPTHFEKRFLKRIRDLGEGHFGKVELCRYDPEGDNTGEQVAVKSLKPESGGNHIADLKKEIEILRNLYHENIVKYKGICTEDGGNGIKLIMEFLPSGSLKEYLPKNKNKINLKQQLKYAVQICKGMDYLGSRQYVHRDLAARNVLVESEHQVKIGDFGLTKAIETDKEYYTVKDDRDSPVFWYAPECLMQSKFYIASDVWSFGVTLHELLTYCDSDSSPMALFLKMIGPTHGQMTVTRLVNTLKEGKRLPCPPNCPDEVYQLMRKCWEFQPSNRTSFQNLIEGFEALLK
Protocol: as §4

EGFR = EGFR (Homo sapiens, UniProt P00533); test: cell-based
EGFR, sequence (P00533 25-1210): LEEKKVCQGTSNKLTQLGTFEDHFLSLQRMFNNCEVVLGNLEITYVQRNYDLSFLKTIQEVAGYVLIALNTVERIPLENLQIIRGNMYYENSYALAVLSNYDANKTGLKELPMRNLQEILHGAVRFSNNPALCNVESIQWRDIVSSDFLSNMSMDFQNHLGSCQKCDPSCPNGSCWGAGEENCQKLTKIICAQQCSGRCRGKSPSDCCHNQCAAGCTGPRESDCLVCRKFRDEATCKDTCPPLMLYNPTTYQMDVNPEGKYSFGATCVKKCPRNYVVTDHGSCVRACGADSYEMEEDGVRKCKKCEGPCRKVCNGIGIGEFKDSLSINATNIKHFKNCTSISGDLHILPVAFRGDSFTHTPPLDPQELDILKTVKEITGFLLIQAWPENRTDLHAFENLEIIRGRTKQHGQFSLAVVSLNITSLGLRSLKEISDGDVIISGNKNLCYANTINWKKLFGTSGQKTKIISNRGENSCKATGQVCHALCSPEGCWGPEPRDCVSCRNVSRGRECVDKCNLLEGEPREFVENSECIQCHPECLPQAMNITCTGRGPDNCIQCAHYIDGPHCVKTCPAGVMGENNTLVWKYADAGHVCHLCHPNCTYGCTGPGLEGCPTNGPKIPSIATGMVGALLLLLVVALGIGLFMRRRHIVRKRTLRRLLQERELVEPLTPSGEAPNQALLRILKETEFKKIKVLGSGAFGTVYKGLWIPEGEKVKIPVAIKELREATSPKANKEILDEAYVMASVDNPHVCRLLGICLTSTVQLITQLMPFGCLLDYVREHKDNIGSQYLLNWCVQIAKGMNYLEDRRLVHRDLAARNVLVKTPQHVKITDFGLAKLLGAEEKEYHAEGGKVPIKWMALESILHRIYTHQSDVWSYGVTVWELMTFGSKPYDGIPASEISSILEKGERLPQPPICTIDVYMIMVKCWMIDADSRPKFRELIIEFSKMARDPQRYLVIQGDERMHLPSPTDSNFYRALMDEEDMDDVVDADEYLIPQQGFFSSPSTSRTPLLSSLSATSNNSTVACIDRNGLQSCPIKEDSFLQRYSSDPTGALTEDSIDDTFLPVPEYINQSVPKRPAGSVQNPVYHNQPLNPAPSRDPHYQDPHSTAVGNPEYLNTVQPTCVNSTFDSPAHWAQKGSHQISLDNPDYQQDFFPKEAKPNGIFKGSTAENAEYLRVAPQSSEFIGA
Protocol: as §4

[2] = test system: HER2 expression human non-parvicellular lung cancer A549 cells; test: Anti-tumor effect against HER2 expression tumor in nude mouse: A549; format: in vivo; conditions: HER2 score 1+, dose 20 mg/kg/day orally, divided into two per day, 14 days
Protocol: Immediately after transplantation and day 7 after the transplantation, estradiol dipropionate (5 mg/kg solution, 50 μL) was intramuscularly administered to the hind leg with the aim of enhancing the survival rate of the tumor. […] HER2 high expression human gastric cancer cells 4-1ST was a in vivo subcultured tumor and seed tumor piece (ca. 50 mm^3) was subcutaneously transplanted into the nude mouse.
as §2

[3] = test system: HER2 expression cells (Ma-46); conditions: cultured 3 days, cells counted
Protocol: (§5) 1) Cell growth inhibitory action; Each cell line was sown in a 24-well-multi-well plate (5×10^4 cells/well) and cultured overnight in a carbon dioxide gas incubator (5% CO2, 37° C.).

[4] = test system: HER2/EGF-R co-expression cells (A549); conditions: cultured 3 days, cells counted
Protocol: as §5

[5] = test system: HER2 non-expression cells (Ma-1); conditions: cultured 3 days, cells counted
Protocol: as §5

[6] = test system: HER2 high expression human breast cancer cells BT-474; conditions: 1 μmol/L, cultured ~5 days
Protocol: After the culture, the culture medium was removed and a cell suspension was prepared by a trypsin treatment and the cells were fixed with 70% ethanol. The DNA of the cells was stained with propidium iodide and the DNA amount was measured by a flow cytometer. The cells with a decreased amount of DNA are apoptotic (cell death) cells.

[7] = test system: HER2 high expression human breast cancer cell BT-474; test: Anti-tumor effect, combined use (BT-474 cancer-bearing nude mice); format: in vivo, mouse
Excerpt: Formula: Tumor volume=longer diameter×shorter diameter×shorter diameter×(1/2)

[8] = test system: HER2 high expression human breast cancer cells BT-474; conditions: HER2 score 3+, dose 20 mg/kg/day orally, divided into two per day, 14 days
Protocol: (§6) Immediately after transplantation and day 7 after the transplantation, estradiol dipropionate (5 mg/kg solution, 50 μL) was intramuscularly administered to the hind leg with the aim of enhancing the survival rate of the tumor. HER2 expression human non-parvicellular lung cancer A549 cells were suspended in Matrigel solution and 5,000,000 cells were subcutaneously transplanted into the chest of female BALB/c nude mouse (6 weeks of age). HER2 expression human kidney cancer ACHN cells (2,000,000 cells) were subcutaneously transplanted into the chest of nude mouse. HER2 high expression human gastric cancer cells 4-1ST was a in vivo subcultured tumor and seed tumor piece (ca. 50 mm^3) was subcutaneously transplanted into the nude mouse.
as §1, §2, §3

[9] = test system: HER2 high expression human gastric cancer cells 4-1ST; conditions: HER2 score 3+, dose 15 mg/kg/day orally, divided into two per day, 14 days
Protocol: as §6, §1, §2, §3

[10] = test system: HER2 expression human kidney cancer ACHN cells; conditions: renal, HER2 score 1+; dose 20 mg/kg/day orally, divided into two per day, 14 days
Protocol: as §6, §1, §2, §3

How did the “Compound B4 T/C (%), MDA-MB-231” value (MDA-MB-231) turn out when `FC(F)(F)c1ccc(/C=C/c2nc(COc3ccc(CCCCn4ccnn4)cc3)co2)cc1` [Compound B4, 1-(4-{4-[(2-{(E)-2-[4-(trifluoromethyl)phenyl]ethenyl}-1,3-oxazol-4-yl)methoxy]phenyl}butyl)-1H-1,2,3-triazole] was run?
Its value is 87%.

And the IC50 (FGFR)?
Its IC50 is greater than 25 µmol/L.

What about the IC50 [1] of the same molecule?
Its IC50 is greater than 25 µM.

And the IC50 (PDGFR)?
Its IC50 is greater than 25 µmol/L.

What about the “intra-tumor HER2 phosphorylation (per tumor weight), % of the control group” value (HER2) of the same molecule?
The value was 13%.

And the IC50 (Akt)?
Its IC50 is 0.0019 µM.

And the IC50 (blk)?
Its IC50 is greater than 25 µM.

And the IC50 (Jak1)?
The IC50 was greater than 25 µM.

And the IC50 (EGFR)?
The IC50 was greater than 25 µM.

What about the “Compound B4 T/C (%), A549” value [2] of the same molecule?
Its value is 22%.

What about the “cell growth inhibitory action on HER2 expression cells (Ma-46)” value [3] of the same molecule?
Its value is “strong cell growth inhibitory action”.

What about the “cell growth inhibitory action on HER2/EGF-R co-expression cells (A549)” value [4] of the same molecule?
Its value is “strong cell growth inhibitory action”.

What about the “cell growth inhibitory action on HER2 non-expression cells (Ma-1)” value [5] of the same molecule?
The value was “did not show a cell growth inhibitory action”.

And the cell death induction [6]?
Its cell death induction is “induced cell death”.

What about the “growth rate T/C (%)” value ([7]; compound B4 20 mg/kg/day orally, divided into two per day, 14 days, trastuzumab 10 mg/kg intraperitoneally twice a week, 2 weeks, or both) of the same molecule?
Its value is −18%.

And the “cases with significant decrease in the tumor volume” value ([7]; same regimens as T/C)?
Its value is 5 cases out of 5 cases.

What about the “decrease in the tumor volume (% reduction)” value ([7]; same regimens as T/C) of the same molecule?
Its value is 13-30%.

What about the “Compound B4 T/C (%), BT-474” value [8] of the same molecule?
Its value is −18%.

And the “Compound B4 T/C (%), 4-1ST” value [9]?
The value was 4%.

And the “Compound B4 T/C (%), ACHN” value [10]?
Its value is −16%.
